Assays:
OCI-Ly3 cells = test: 4-day proliferation assay, OCI-Ly3; type: cell-based, human; details: Homo sapiens, 96 h, 4 days incubation, CellTiterGLO, read-out: Anti-proliferation: OCI-LY-3 IC50
Procedure: (§1) To assess anti-proliferative effects, MALT1 inhibitor test compounds were tested in 4-day proliferation assays using three different DLBCL cell lines.
(§2) Cells should be kept between 0.5-2.5 million cells per mL during culturing and cells should be supplemented every 2-3 days with fresh 50 μM beta-mercaptoenthanol. No beta-mercaptoethanol is used during the proliferation assay. OCI-Ly7 cells were propagated in IMDM (ThermoFisher) supplemented with 10% fetal bovine serum (HyClone), 2 mM L-glutamine (Sigma Aldrich) and 50 μg/mL Gentamycin. Cell passage numbers should not exceed 30 (for OCI-Ly3 cells with passage number lower than 10 were used).
(§3) 10,000 TMD8, 10,000 OCI-Ly3 or 2,000 OCI-Ly7 cells were seeded in 100 μL media per well and incubated for 4 days at 37° C. and 5% CO2. Cell plating numbers were chosen based on growth curves to ensure linear cell growth. After 4 days of incubation 50 μL CellTiterGLO reagent (Promega) were added to each well and luminescence was measured on the Envision after 10 min of incubation at room temperature.
(§4) LC=median of the low control values
(§5) An estimate of the slope of the plot in terms of the Hill coefficient was also obtained.

TMD8 cells = test: 4-day proliferation assay, TMD8; type: cell-based; details: Homo sapiens, 96 h, 4 days incubation, CellTiterGLO, read-out: Anti-proliferation: TMD-8 IC50
Procedure: as §1, §2, §3, §4, §5

[1] = target: full-length MALT1 protein (Strep-MALT1(1-824)-His) (Homo sapiens (Human), UniProt Q9UDY8); test: MALT1 Biochemical Protease Assay (Ac-LRSR-AMC substrate); details: 10 nM FL MALT1, 200 μM Ac-LRSR-AMC, 4 h at RT; read-out: MALT1_Biochemical activity (Ac-LRSR-amc) IC50
Sequence of full-length MALT1 protein (Strep-MALT1(1-824)-His) (Q9UDY8 whole entry): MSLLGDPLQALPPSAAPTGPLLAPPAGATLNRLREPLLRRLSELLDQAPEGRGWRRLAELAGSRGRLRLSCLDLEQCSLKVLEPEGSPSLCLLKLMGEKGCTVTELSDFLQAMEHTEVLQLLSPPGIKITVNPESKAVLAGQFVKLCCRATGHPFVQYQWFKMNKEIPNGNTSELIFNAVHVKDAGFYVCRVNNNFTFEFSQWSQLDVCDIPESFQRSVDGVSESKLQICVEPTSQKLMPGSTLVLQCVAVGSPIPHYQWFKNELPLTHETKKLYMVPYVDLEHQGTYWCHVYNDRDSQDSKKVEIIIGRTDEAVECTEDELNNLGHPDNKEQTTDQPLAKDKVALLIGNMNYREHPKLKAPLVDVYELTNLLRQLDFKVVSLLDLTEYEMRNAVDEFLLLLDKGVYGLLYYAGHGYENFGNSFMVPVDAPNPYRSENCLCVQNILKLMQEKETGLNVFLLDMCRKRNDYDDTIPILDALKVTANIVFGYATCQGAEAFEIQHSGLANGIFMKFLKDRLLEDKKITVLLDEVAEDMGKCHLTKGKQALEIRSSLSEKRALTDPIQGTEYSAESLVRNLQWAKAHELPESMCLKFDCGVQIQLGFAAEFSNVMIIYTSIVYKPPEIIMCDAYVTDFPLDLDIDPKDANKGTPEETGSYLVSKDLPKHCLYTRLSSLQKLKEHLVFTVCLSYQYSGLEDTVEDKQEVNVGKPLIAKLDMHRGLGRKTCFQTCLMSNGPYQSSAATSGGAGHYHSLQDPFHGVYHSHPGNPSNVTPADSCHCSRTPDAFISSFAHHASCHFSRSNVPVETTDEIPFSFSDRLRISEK
How it was run: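 Full-length MALT1 pre-incubated with compounds (30 μM to 0.5 nM, 11 threefold steps) for 50 min at RT. After Ac-LRSR-AMC was added, the reaction ran 4 h at RT and AMC fluorescence was read. IC50 and Hill slope from curve fitting against no-enzyme and no-compound controls.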

[2] = system: IL6 secretion by TMD8 ABC-DLBCL cells; test: Human IL6 Mesoscale assay (TMD-8); type: cell-based; details: Homo sapiens, TMD8; TMD-8 cells, 24 h
How it was run: (§6)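 100,000 cells/well treated with compound in 9 twofold steps from 15 μM to 58.6 nM (0.3% DMSO) for 24 h at 37° C; supernatant cytokine measured by MSD electrochemiluminescence sandwich immunoassay. DMSO wells set maximum signal, BTK inhibitor RN486 (30 nM to 131 pM) set maximum inhibition.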

[3] = system: IL10 secretion by TMD8 ABC-DLBCL cells; test: Human IL10 Mesoscale assay (TMD-8); type: cell-based; details: Homo sapiens, TMD8; TMD-8 cells, 24 h
How it was run: as §6

[4] = system: IL10 secretion by OCI-LY3 ABC-DLBCL cells; test: Human IL10 Mesoscale assay (OCI-LY3); type: cell-based; details: Homo sapiens, 24 h
How it was run: as §6

[5] = system: IL6 secretion by OCI-LY3 ABC-DLBCL cells; test: Human IL6 Mesoscale assay (OCI-LY3); type: cell-based; details: Homo sapiens, 24 h
How it was run: as §6

SMILES	IC50 (OCI-Ly3 cells)	IC50 [1]	IC50 [2]	IC50 [3]	IC50 [4]	IC50 [5]	IC50 (TMD8 cells)
O=C(Nc1cnc(OC2CC2)c(Cl)c1)c1cnn(-c2cccc3ncccc23)c1C(F)(F)F [Cpd 79, N-(5-Chloro-6-cyclopropoxypyridin-3-yl)-1-(quinolin-5-yl)-5-(trifluoromethyl)-1H-pyrazole-4-carboxamide]	~2340 nM	98 nM	~340 nM	251 nM			8320 nM
N#Cc1cc(NC(=O)c2cnn(-c3cccc4ncccc34)c2C(F)(F)F)cnc1OC1CC1 [Cpd 88, N-(5-cyano-6-cyclopropoxypyridin-3-yl)-1-(quinolin-5-yl)-5-(trifluoromethyl)-1H-pyrazole-4-carboxamide]	1350 nM	107 nM	331 nM	209 nM			~12000 nM
CN1C(=O)COc2c(Cl)cc(NC(=O)c3cnn(-c4cncc5ccccc45)c3C(F)(F)F)cc21 [Cpd 97, N-(8-chloro-4-methyl-3-oxo-3,4-dihydro-2H-benzo[b][1,4]oxazin-6-yl)-1-(isoquinolin-4-yl)-5-(trifluoromethyl)-1H-pyrazole-4-carboxamide]	3470 nM	209 nM	575 nM	257 nM			~5890 nM
NCCCCNC(=O)c1ncc(NC(=O)c2cnn(-c3cncc4ccccc34)c2C(F)(F)F)cc1Cl [Cpd 72, N-(4-aminobutyl)-3-chloro-5-(1-(isoquinolin-4-yl)-5-(trifluoromethyl)-1H-pyrazole-4-carboxamido)picolinamide]	1660 nM	407 nM	851 nM	1380 nM			> 20000 nM
Cn1ccc(-c2ncc(NC(=O)c3cnn(-c4cccc5ccncc45)c3C(F)(F)F)cc2Cl)n1 [Cpd 21, N-(5-Chloro-6-(1-methyl-1H-pyrazol-3-yl)pyridin-3-yl)-1-(isoquinolin-8-yl)-5-(trifluoromethyl)-1H-pyrazole-4-carboxamide]	~12900 nM	1440 nM	> 15000 nM				> 20000 nM
Cc1nc(-n2nccn2)c(Cl)cc1NC(=O)c1cnn(-c2cccc3nccn23)c1C(F)(F)F [Cpd 194, N-(5-chloro-2-methyl-6-(2H-1,2,3-triazol-2-yl)pyridin-3-yl)-1-(imidazo[1,2-a]pyridin-5-yl)-5-(trifluoromethyl)-1H-pyrazole-4-carboxamide]		76 nM	78 nM	98 nM	68 nM	100 nM	
CC(C)(C)OC(=O)N1CCC1c1nccc2c(-n3ncc(C(=O)Nc4cnc(-n5nccn5)c(Cl)c4)c3C(F)(F)F)cccc12 (stereo not shown) [Cpd 383, tert-butyl 2-(5-(4-((5-chloro-6-(2H-1,2,3-triazol-2-yl)pyridin-3-yl)carbamoyl)-5-(trifluoromethyl)-1H-pyrazol-1-yl)isoquinolin-1-yl)azetidine-1-carboxylate]		10000 nM	95 nM	105 nM	36 nM	27 nM	
CC(C)Cc1c(C(=O)Nc2cnc(-n3nccn3)c(Cl)c2)cnn1-c1cccc2ncccc12 [Cpd 16, N-(5-Chloro-6-(2H-1,2,3-triazol-2-yl)pyridin-3-yl)-5-isobutyl-1-(quinolin-5-yl)-1H-pyrazole-4-carboxamide]	580 nM	724 nM	1480 nM				10700 nM

The next compounds have a lower IC50 [1] than those just listed; values first:

IC50 (OCI-Ly3 cells)	IC50 [1]	IC50 [2]	IC50 [3]	IC50 [4]	IC50 [5]	SMILES	IC50 (TMD8 cells)
188 nM	16 nM	95 nM	105 nM	36 nM	27 nM	N#Cc1cc(NC(=O)c2cnn(-c3ccnc4ccsc34)c2C(F)(F)F)cnc1-n1nccn1 [Cpd 128, N-(5-cyano-6-(2H-1,2,3-triazol-2-yl)pyridin-3-yl)-1-(thieno[3,2-b]pyridin-7-yl)-5-(trifluoromethyl)-1H-pyrazole-4-carboxamide]	
585 nM	32 nM	4270 nM	1000 nM			O=C(Nc1cnc(-n2nccn2)c(Cl)c1)c1cnn(-c2c[nH]c(=O)c3c(F)cccc23)c1C(F)(F)F [Cpd 184, N-(5-chloro-6-(2H-1,2,3-triazol-2-yl)pyridin-3-yl)-1-(8-fluoro-1-oxo-1,2-dihydroisoquinolin-4-yl)-5-(trifluoromethyl)-1H-pyrazole-4-carboxamide]	6030 nM
837 nM	54 nM	214 nM	166 nM			O=C(Nc1cnc(-n2nccn2)c(Cl)c1)c1cnn(-c2cnc(CO)c3ccccc23)c1C(F)(F)F [Cpd 385, N-(5-chloro-6-(2H-1,2,3-triazol-2-yl)pyridin-3-yl)-1-(1-(hydroxymethyl)isoquinolin-4-yl)-5-(trifluoromethyl)-1H-pyrazole-4-carboxamide]	1510 nM
1170 nM	24 nM	72 nM	28 nM			N#Cc1cc(NC(=O)c2cnn(-c3ncnn4cccc34)c2C(F)(F)F)cnc1-n1nccn1 [Cpd 140, N-(5-cyano-6-(2H-1,2,3-triazol-2-yl)pyridin-3-yl)-1-(pyrrolo[2,1-f][1,2,4]triazin-4-yl)-5-(trifluoromethyl)-1H-pyrazole-4-carboxamide]	5370 nM
1080 nM	47 nM	> 3020 nM	204 nM			O=C(Nc1ccc(-n2cc(CO)cn2)c(Cl)c1)c1cnn(-c2cccc3ncccc23)c1C(F)(F)F [Cpd 175, N-(3-chloro-4-(4-(hydroxymethyl)-1H-pyrazol-1-yl)phenyl)-1-(quinolin-5-yl)-5-(trifluoromethyl)-1H-pyrazole-4-carboxamide]	1230 nM
3570 nM	35 nM	6610 nM	2140 nM			Cn1nc(-c2ncc(NC(=O)c3cnn(-c4cccc5c(=O)[nH]ccc45)c3C(F)(F)F)cc2Cl)cc1N [Cpd 183, N-(6-(5-amino-1-methyl-1H-pyrazol-3-yl)-5-chloropyridin-3-yl)-1-(1-oxo-1,2-dihydroisoquinolin-5-yl)-5-(trifluoromethyl)-1H-pyrazole-4-carboxamide]	> 20000 nM
1270 nM	52 nM			490 nM	646 nM	Cc1csc2c(-n3ncc(C(=O)Nc4cnc(-n5nccn5)c(C#N)c4)c3C(F)(F)F)ccnc12 [Cpd 310, N-(5-cyano-6-(2H-1,2,3-triazol-2-yl)pyridin-3-yl)-1-(3-methylthieno[3,2-b]pyridin-7-yl)-5-(trifluoromethyl)-1H-pyrazole-4-carboxamide]	
1950 nM	35 nM	105 nM				Cc1ccc2ncccc2c1-n1ncc(C(=O)Nc2cnc(-n3nccn3)c(Cl)c2)c1C(F)(F)F [Cpd 27, N-(5-Chloro-6-(2H-1,2,3-triazol-2-yl)pyridin-3-yl)-1-(6-methylquinolin-5-yl)-5-(trifluoromethyl)-1H-pyrazole-4-carboxamide]	13800 nM
	23 nM	78 nM	98 nM	68 nM	100 nM	O=C(Nc1cnc(-n2nccn2)c(Cl)c1)c1cnn(-c2cccc3cnccc23)c1C(F)(F)F [Cpd 449, N-(5-chloro-6-(2H-1,2,3-triazol-2-yl)pyridin-3-yl)-1-(isoquinolin-5-yl)-5-(trifluoromethyl)-1H-pyrazole-4-carboxamide]	

Reference: patent US10954214B2 (Janssen Pharmaceutica NV, priority 2016, dated 2021)
